Data taken from ChEMBL document CHEMBL4265949, “Design, synthesis and biological evaluation of 2-substituted 3-hydroxy-6-methyl-4H-pyran-4-one derivatives as Pseudomonas aeruginosa biofilm inhibitors” (Eur J Med Chem, 2018).
Active and inactive are the calls of the source. The rule behind the calls is not given here.

How the values were obtained:
Pseudomonas aeruginosa [1] = assay: Inhibition of biofilm formation of Pseudomonas aeruginosa PAO1 at 20 uM after 24 hrs by crystal violet staining based assay relative to control; assay type: functional; conditions: PAO1, 24 h
Pseudomonas aeruginosa [2] = assay: Antibacterial activity against Pseudomonas aeruginosa PAO1 recorded every 10 mins for 15 hrs by broth micro dilution method; assay type: functional
Pseudomonas aeruginosa [3] = assay: Inhibition of biofilm formation of Pseudomonas aeruginosa PAO1 after 24 hrs by crystal violet staining based assay; assay type: functional, organism-based
Pseudomonas aeruginosa [4] = assay: Inhibition of biofilm formation of Pseudomonas aeruginosa PAO1 at 2.5 uM after 24 hrs by crystal violet staining based assay relative to control; assay type: functional; conditions: PAO1, 24 h
Pseudomonas aeruginosa [5] = assay: Inhibition of biofilm formation of Pseudomonas aeruginosa PAO1 after 24 hrs by confocal laser scanning microscopy; assay type: functional, organism-based
Pseudomonas aeruginosa [6] = assay: Antibacterial activity against Pseudomonas aeruginosa PAO1 up to 40 uM after 13 hrs by broth micro dilution method; assay type: functional, organism-based
[7] = target: T1, Anthranilate--CoA ligase (Pseudomonas aeruginosa (strain ATCC 15692 / DSM 22644 / CIP 104116 /JCM 14847 / LMG 12228 / 1C / PRS 101 / PAO1)) (UniProt Q9I4X3); assay: Inhibition of Pseudomonas aeruginosa PAO1 GFP-fused quorum sensing pqsA measured every 15 mins up to 12 hrs by GFP reporter gene assay
T1 sequence (whole entry): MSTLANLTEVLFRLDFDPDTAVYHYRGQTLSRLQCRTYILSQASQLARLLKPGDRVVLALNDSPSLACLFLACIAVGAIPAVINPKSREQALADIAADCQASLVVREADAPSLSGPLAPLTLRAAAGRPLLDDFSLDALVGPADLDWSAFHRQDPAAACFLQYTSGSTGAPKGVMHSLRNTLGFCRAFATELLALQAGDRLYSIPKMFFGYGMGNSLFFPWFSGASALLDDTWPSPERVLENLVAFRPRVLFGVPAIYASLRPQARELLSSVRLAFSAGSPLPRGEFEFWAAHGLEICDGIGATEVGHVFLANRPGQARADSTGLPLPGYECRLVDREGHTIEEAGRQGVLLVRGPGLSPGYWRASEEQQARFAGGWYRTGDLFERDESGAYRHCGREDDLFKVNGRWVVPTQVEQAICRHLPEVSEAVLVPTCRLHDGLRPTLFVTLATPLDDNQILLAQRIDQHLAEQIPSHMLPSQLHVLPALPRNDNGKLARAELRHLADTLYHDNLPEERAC

[8] = target: Elastase (Pseudomonas aeruginosa (strain ATCC 15692 / PAO1 / 1C / PRS 101 / LMG12228)) (UniProt P14756); assay: Inhibition of Pseudomonas aeruginosa PAO1 GFP-fused quorum sensing lasB up to 40 uM measured every 15 mins up to 12 hrs by GFP reporter gene assay
[9] = target: 3-(3-hydroxydecanoyloxy)decanoate synthase (Pseudomonas aeruginosa (strain ATCC 15692 / PAO1 / 1C / PRS 101 / LMG12228)) (UniProt Q51559); assay: Inhibition of Pseudomonas aeruginosa PAO1 GFP-fused quorum sensing rhlA up to 40 uM measured every 15 mins up to 12 hrs by GFP reporter gene assay
[10] = Effect on GFP (unknown origin) protein expression in Pseudomonas aeruginosa PAO1 up to 40 uM after 12 hrs by GFP reporter gene assay; conditions: unidentified
[11] = target: T1, Anthranilate--CoA ligase (Pseudomonas aeruginosa (strain ATCC 15692 / DSM 22644 / CIP 104116 /JCM 14847 / LMG 12228 / 1C / PRS 101 / PAO1)); assay: Inhibition of Pseudomonas aeruginosa PAO1 GFP-fused quorum sensing pqsA assessed as decrease in pyocyanin production
[12] = target: T1, Anthranilate--CoA ligase (Pseudomonas aeruginosa (strain ATCC 15692 / DSM 22644 / CIP 104116 /JCM 14847 / LMG 12228 / 1C / PRS 101 / PAO1)); assay: Inhibition of Pseudomonas aeruginosa PAO1 GFP-fused quorum sensing pqsA assessed as decrease in pyocyanin production at 40 uM
[13] = target: Elastase (Pseudomonas aeruginosa (strain ATCC 15692 / PAO1 / 1C / PRS 101 / LMG12228)) (UniProt P14756); assay: Inhibition of Pseudomonas aeruginosa PAO1 GFP-fused quorum sensing lasB assessed as decrease in elastase activity up to 40 uM incubated for 24 hrs recorded every 10 mins for 3 hrs
[14] = target: 3-(3-hydroxydecanoyloxy)decanoate synthase (Pseudomonas aeruginosa (strain ATCC 15692 / PAO1 / 1C / PRS 101 / LMG12228)) (UniProt Q51559); assay: Inhibition of Pseudomonas aeruginosa PAO1 GFP-fused quorum sensing rhlA assessed as decrease in rhamnolipid lipid levels up to 40 uM measured after 30 mins
RAW264.7 [15] = assay: Cytotoxicity against mouse RAW264.7 cells assessed as decrease in cell viability at <= 2.5 uM after 24 hrs by MTT assay; assay type: cell-based; conditions: raw264.7, 24 h
RAW264.7 [16] = assay: Cytotoxicity against mouse RAW264.7 cells assessed as decrease in cell viability at 50 uM after 24 hrs by MTT assay; assay type: cell-based; conditions: raw264.7, 24 h

Sequence of Elastase (Pseudomonas aeruginosa (strain ATCC 15692 / PAO1 / 1C / PRS 101 / LMG12228)) (P14756 198-498 limits assumed): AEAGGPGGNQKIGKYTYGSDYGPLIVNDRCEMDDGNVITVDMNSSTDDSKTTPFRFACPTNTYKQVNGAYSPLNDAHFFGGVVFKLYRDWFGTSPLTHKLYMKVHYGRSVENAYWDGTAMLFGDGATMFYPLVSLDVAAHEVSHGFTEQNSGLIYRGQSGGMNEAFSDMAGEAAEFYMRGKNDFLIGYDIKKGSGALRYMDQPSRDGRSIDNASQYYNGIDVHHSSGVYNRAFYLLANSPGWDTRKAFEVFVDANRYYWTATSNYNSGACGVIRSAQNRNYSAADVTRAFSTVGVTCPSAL

MIC (Pseudomonas aeruginosa [2])	SMILES	inhibition at 20 µM (Pseudomonas aeruginosa [1])	further results
> 512 µM	Cc1cc(=O)c(O)c(C(O)c2ccc(Cc3ccccc3)cc2)o1 (stereo unspecified)	20.6%	
> 512 µM	Cc1cc(=O)c(O)c(C(O)c2ccc(/C=C/c3ccccc3)cc2)o1 (stereo unspecified)	35.1%	
> 512 µM	Cc1cc(=O)c(O)c(C(O)c2ccc(-n3ccnc3)cc2)o1 (stereo unspecified)	17.3%	
> 512 µM	Cc1cc(=O)c(O)c(C(O)c2ccc(C#Cc3ccc(C(F)(F)F)cc3)cc2)o1 (stereo unspecified)	24.9%	
> 512 µM	Cc1cc(=O)c(O)c(C(O)c2ccc(C#Cc3ccccc3)cc2)o1 (stereo unspecified)	30.2%	
> 512 µM	Cc1cc(=O)c(O)c(C(O)c2ccc(-c3ccccc3)cc2)o1 (stereo unspecified)	3.26%	
> 512 µM	Cc1cc(=O)c(O)c(C(O)c2ccccc2F)o1 (stereo unspecified)	5.34%	
> 512 µM	Cc1cc(=O)c(O)c(C(O)c2ccc(CCc3ccccc3)cc2)o1 (stereo unspecified)	28.7%	
> 512 µM	CCCCCCC(O)c1oc(C)cc(=O)c1O (stereo unspecified)	41.5%	
> 512 µM	Cc1cc(=O)c(O)c(C(O)c2ccc(OCc3ccccc3)cc2)o1 (stereo unspecified)	22%	
> 512 µM	Cc1cc(=O)c(O)c(Cc2ccc(Cl)cc2)o1	34.2%	
> 512 µM	Cc1cc(=O)c(O)c(C(O)c2ccc(C#Cc3ccc(F)cc3)cc2)o1 (stereo unspecified)	39.1%	
> 512 µM	Cc1cc(=O)c(O)c(C(O)c2cccc(F)c2)o1 (stereo unspecified)	12.3%	
> 512 µM	Cc1cc(=O)c(O)c(C(O)c2ccc(-c3ccc([N+](=O)[O-])cc3)cc2)o1 (stereo unspecified)	48.5%	
> 512 µM	CCCCCCCC(O)c1oc(C)cc(=O)c1O (stereo unspecified)	15.8%	
> 512 µM	Cc1cc(=O)c(O)c(Cc2ccc(C(F)(F)F)cc2)o1	32.8%	

MIC (Pseudomonas aeruginosa [2])	SMILES	inhibition at 20 µM (Pseudomonas aeruginosa [1])	further results
> 512 µM	Cc1cc(=O)c(O)c(Cc2ccc(F)cc2)o1	30.5%	
> 512 µM	Cc1cc(=O)c(O)c(C(O)c2ccc(C#Cc3ccccn3)cc2)o1 (stereo unspecified)	37.7%	
> 512 µM	Cc1cc(=O)c(O)c(C(O)c2ccccc2Br)o1 (stereo unspecified)	9.04%	
> 512 µM	Cc1cc(=O)c(O)c(C(O)c2ccc(C#Cc3cccc(F)c3)cc2)o1 (stereo unspecified)	31.5%	
> 512 µM	Cc1cc(=O)c(O)c(Cc2ccccc2)o1	27.4%	
> 512 µM	Cc1cc(=O)c(O)c(C(O)c2ccc(C#CC3CCCCC3)cc2)o1 (stereo unspecified)	36.9%	
> 512 µM	CCCCC(O)c1oc(C)cc(=O)c1O (stereo unspecified)	22%	
> 512 µM	Cc1cc(=O)c(O)c(C(O)c2ccc([N+](=O)[O-])cc2)o1 (stereo unspecified)	51%	inhibition (Pseudomonas aeruginosa [3]): Dose-dependent effect; inhibition at 2.5 µM (Pseudomonas aeruginosa [4]): 30%; inhibition (Pseudomonas aeruginosa [5]): Dose-dependent effect; Activity (Pseudomonas aeruginosa [6]): inactive; inhibition [7]: Dose-dependent effect; inhibition [8]: inactive; inhibition [9]: inactive; Activity [10]: Non-Toxic; inhibition [11]: Dose-dependent effect; inhibition [12]: 60%; inhibition [13]: inactive; inhibition [14]: inactive; Activity (RAW264.7 [15]): Non-Toxic; Activity (RAW264.7 [16]): Toxic
> 512 µM	Cc1cc(=O)c(O)c(C(O)c2cccc(Br)c2)o1 (stereo unspecified)	5.67%	
> 512 µM	CCCCCC(O)c1oc(C)cc(=O)c1O (stereo unspecified)	44.6%	
> 512 µM	CCCC(O)c1oc(C)cc(=O)c1O (stereo unspecified)	33.2%	
> 512 µM	CSCCC(O)c1oc(C)cc(=O)c1O (stereo unspecified)	25.9%	
> 512 µM	COc1ccc(C#Cc2ccc(C(O)c3oc(C)cc(=O)c3O)cc2)cc1 (stereo unspecified)	26.3%	
> 512 µM	Cc1cc(=O)c(O)c(C(O)c2ccc(OCc3ccc([N+](=O)[O-])cc3)cc2)o1 (stereo unspecified)	22%	
> 512 µM	Cc1cc(=O)c(O)c(C(O)c2ccc(S(F)(F)(F)(F)F)cc2)o1 (stereo unspecified)	31.7%	
